In article PMC9344054, “Studies on Chemical Characterization of Ginkgo Amillaria Oral Solution and Its Drug–Drug Interaction With Piceatannol 3′-O-β-D-Glucopyranoside for Injection” (Frontiers in Pharmacology, 2022):

How the values were obtained:
[1] = Pharmacokinetic study of PGI alone and after repeated GAO in rats; type: in vivo, rat; details: for clearance / AUC(0-inf) / AUC(0-t) / half-life: male, SD, rat, plasma, iv, 9 mg/kg, n = 8; for clearance: CL
Protocol: A total of 100 μl of rat plasma sample and 10 μl of polydatin solution (IS) were mixed with 400 μl of ice acetonitrile; the mixture was vortexed for 3 min and centrifuged at 13,200 × g under 4℃ for 20 min. The supernatant was transferred to another centrifuge tube and dry with nitrogen, re-dissolved with 100 μl of 80% methanol-H2O (v/v). The mixture was vortexed for 3 min and centrifuged at 13,200 × g under 4℃ for 20 min. For further LC-MS analysis, 3 μl of the supernatant was injected.
An ultrahigh-performance liquid chromatography-mass spectrometer (Waters, United States) was used for separation and detection. A Waters ACQUITY UPLC HSS T3 column (2.1 × 100 mm, 1.8 μm) was employed at 35℃ with a flow rate of 0.3 ml min^−1. The mobile phase consisted of acetonitrile (A) and water containing 0.1% FA (B). The following linear gradient was used: 0–4 min: 25–95% A; 4–4.5 min: 95–25% A; and 4.5–6 min: 25% A.
MRM was performed using QQQ-MS model Xevo TQ-S (Waters, United States). ESI was set as follows: capillary voltage, 3.0 kV; desolvation temperature, 450℃; and desolvation gas flow, 900 L/h (N2, purity 99.9%). The MRM transitions (precursor → product) of PG and polydatin (IS) were m/z 405.16 → m/z 243.18 and m/z 389.16 → m/z 227.20, respectively. The cone voltage of PG and polydatin were 80 and 84 V, respectively. The collision energy of PG and polydatin was 30 and 20 V, respectively.
Sixteen SD male rats (200 ± 20 g) were purchased from Beijing Vital River Laboratory Animal Technology Co., Ltd. (license number: SCXK (Beijing) 2016-0006). All rats were reared adaptively in a suitable environment for 1 week with freely available food and water. The temperature was maintained at 22℃, and the light was maintained for 12 h in a day.
The rats were randomly divided into two groups, viz., the control group (n = 8) and the combined group (n = 8). For the control group, 9 mg kg^−1 of PGI was injected into the tail vein of rats, whereas the same dosage of PGI was injected after 14 days of repeated GAO ingestion (51 mg kg^−1) for the combined group. The dosage administered to rats is in accordance with clinical dosage. After administration, blood samples were obtained from each rat at 0.03, 0.08, 0.16, 0.33, 0.5, 0.75, 1, 2, 3, 4, and 6 h. The blood sample was centrifuged at 6,600 × g under 4℃ for 10 min, and the supernatant was stored at −80℃ for further analysis.
Pharmacokinetic parameters were calculated under a noncompartmental model using Drug and Statistics 1.0 (DAS 1.0) software.

[2] = Stability of PG in rat blank plasma (method validation); type: in vitro ADME; set-up: unit not given here; details: n = 6
Protocol: UPLC-MS/MS method validation was performed according to the FDA bioanalytical method validation guidance. The method was validated in terms of linearity, accuracy, precision, extraction recovery, matrix effect, and stability.
The result of specificity is shown in Supplementary Figure S12. The RTs of PG and polydatin were 1.47 and 1.70 min, respectively. Their chromatographic peaks were in good shape, and there was no interference from other endogenous substances. The regression equation of PG was y = 0.584781x − 0.47063, and the r ^2 and range of the linear were 0.9929 and 0.001–40 μg mL^−1, respectively. LLOQ was 0.5 ng mL^−1. The RSD of the intraday and interday precision was less than 15%, and the accuracy was between 80% and 120% (Supplementary Table S11). […] The stability of PG was less than 12.83% (Supplementary Table S13 ). It was shown that the established method complies with the relevant regulations of pharmacokinetics.

[3] = tested on: UGT2B7; assay: Metabolism of PG based on UGTs, rat liver microsomes with inhibitor fluconazole; type: in vitro ADME; details: PG 10 μmol L−1, fluconazole 50 μmol L−1, p > 0.05
Protocol: The incubation mixtures consisted of 1 mg mL^−1 of rat liver microsomes, 1 mmol L^−1 of UDPGA and 10 μmol L^−1 of PG, tris-HCl (pH = 7.4) and inhibitor (pazopanib (50 μmol L^−1)), niflumic acid (10 μmol L^−1), and fluconazole (50 μmol L^−1). The incubation system was the same as that in “2.4.1.,” whereas polydatin (20 μg mL^−1) was selected as the IS. Detection and analysis conditions based on UPLC-QQQ-MS were the same as those in “2.4.2.” The MRM transitions, cone voltage, and collision voltage of the target compounds and IS are shown in Supplementary Table S1.

[4] = rats, 2020, cited from earlier work
[5] = after 14 days repeated GAO, p < 0.05
[6] = Combined group: PGI 9 mg kg−1 tail vein after 14 days of repeated GAO 51 mg kg−1, rats
[7] = Control group: PGI 9 mg kg−1 tail vein, rats

change of AUC 0-t of PG, combined group vs control [1, 5]: significantly increased
change of AUC 0-∞ of PG, combined group vs control [1, 5]: significantly increased
change of T1/2 of PG, combined group vs control [1, 5]: prolonged
change of clearance of PG, combined group vs control [1, 5]: significantly decreased
clearance [1, 6]: 30.4 mL/min/kg
clearance [1, 7]: 46.2 mL/min/kg
AUC(0-inf) [1, 6]: 5010 ± 686 ng·h/mL
AUC(0-t) [1, 6]: 4900 ± 606 ng·h/mL
half-life [1, 6]: 1.74 ± 0.802 h
AUC(0-inf) [1, 7]: 3320 ± 525 ng·h/mL
AUC(0-t) [1, 7]: 3310 ± 517 ng·h/mL
half-life [1, 7]: 1.01 ± 0.409 h
Stability, Measured con. ([2]; 4h, Con. 0.005 μg/mL): 111.33
Stability, Measured con. ([2]; 4h, Con. 5 μg/mL): 117.12
Stability, Measured con. ([2]; 4h, Con. 30 μg/mL): 98.21
Stability, Measured con. ([2]; 24h, Con. 0.005 μg/mL): 116.33
Stability, Measured con. ([2]; 24h, Con. 5 μg/mL): 115.03
Stability, Measured con. ([2]; 24h, Con. 30 μg/mL): 98.37
Stability, Measured con. ([2]; 15 days, Con. 0.005 μg/mL): 92.00
Stability, Measured con. ([2]; 15 days, Con. 5 μg/mL): 100.78
Stability, Measured con. ([2]; 15 days, Con. 30 μg/mL): 96.48
Stability, Measured con. ([2]; Freeze-thaws stability (3 times), Con. 0.005 μg/mL): 107.66
Stability, Measured con. ([2]; Freeze-thaws stability (3 times), Con. 5 μg/mL): 104.58
Stability, Measured con. ([2]; Freeze-thaws stability (3 times), Con. 30 μg/mL): 105.11
contribution of UGT2B7 to metabolism of PG [3]: contributed little or no participation
Compound: OC[C@H]1O[C@@H](Oc2cc(/C=C/c3cc(O)cc(O)c3)ccc2O)[C@H](O)[C@@H](O)[C@@H]1O [PG, Piceatannol-3′-O-β-D-glucopyranoside]
excretion of the prototype of PG ([4]; 40.0 mg kg−1 PG, tail vein and intragastric administration, ref Xu): mainly excreted through urine
distribution ([4]; ref Chai, 2019, Xu): widely distributed
elimination rate ([4]; ref Chai, 2019, Xu): fast elimination rate
excretion ([4]; ref Chai, 2019, Xu): mainly excreted by urine
kinetics ([4]; ref Chai, 2019, Xu): linear kinetics
